Measured values: patent EP4029502A1, “PYRAZOLINE-DERIVED COMPOUND (ENFLICOXIB) FOR USE IN THE PREVENTION AND/OR TREATMENT OF PAIN AND INFLAMMATION ASSOCIATED TO SURGERY IN MAMMALS” (Ecuphar N.V., priority 2021, dated 2022)
Like-named read-outs stand apart in the source and are kept apart here.

Tests used:
[1] = system: dogs undergoing orthopaedic surgery; assay: Non-inferiority field study of postoperative pain and inflammation after orthopaedic surgery, meloxicam-controlled (SFGCMPS, VAS); assay type: in vivo
Description: The study was a non-inferiority, multicentre, prospective, parallel-controlled, randomized and blinded field study.
Thirty-two dogs of different breed, age and weight presenting at the veterinary practice for orthopaedic surgery were included.
Agents with analgesic effect were permitted as premedication. However, intraoperative or postoperative analgesia were not permitted.
For each dog the study lasted twelve days. Two days before surgery, all animals were weighed and underwent a thorough physical examination with clinical pathology to confirm the good health status of the animals before inclusion. Day 0 (D0) was the day dogs underwent surgery and t0h corresponded to the end of surgery (extubation). The physical examination was repeated on D0, before surgery (t-2h) and before dispatch (t8h) and again at t24h (D1) and t168 (D7) post-surgery. Clinical assessments of pain and inflammation were blindly performed on D0, before surgery (t-2h) and again at t1.5h, t3h, t5h, t8h, t24h (D1) and t168h (D7) post-surgery. The global efficacy of treatments was assessed on D7. From day D1 to day D7 post-surgery, the owners assessed the dog's wellbeing.
The primary endpoint for efficacy comprises the sum of scores for the SFGCMPS scale, which was assessed at different time points by the Investigator.
From day D1 to D7, owners daily assessed the dogs' wellbeing using scales for: • Demeanour (0=normal; 1=slightly modified; 2=moderately modified; 3=markedly modified and 4=severely modified). • Mobility (0=normal; 1=slightly impaired; 2=moderately impaired; 3=markedly impaired and 4=severely impaired). • Quality of analgesia as very satisfactory (=1); satisfactory (=2); not very satisfactory (=3); not at all satisfactory (=4).
Blood samples were collected from all animals before inclusion (≤ D-2), for routine pre-surgery blood profile. Potential adverse effects related to the products were also recorded.
Statistical Analysis was performed by use of commercially available software. All analyses used a two-sided significance level α = 0.05. […]

[2] = system: dogs undergoing soft tissue surgery; assay type: in vivo; parameters: Vocalization (SFGCMPS average value) / Attention to wound (SFGCMPS average value) / Mobility (SFGCMPS average value) / Demeanour (SFGCMPS average value) / Posture/Activity (SFGCMPS average value) / Total SFGCMPS (average value): scale not given here
Description: The study was a single centre, prospective, parallel-controlled, randomized and blinded pilot field trial with a negative (Placebo) control to evaluate the efficacy of E-6087 in dogs undergoing elective soft tissue surgery.
Twenty dogs (17 females and 3 males) were included in the study. Dogs were of different breeds or crossbreed, ages from 3 months to 7 years and weights from 4 to 34 kg. All dogs were clinically healthy other than the condition causing the animal to go under surgery.
Two days before surgery animals were weighed, a detailed physical examination was performed, and blood samples were collected for routine haematology and biochemistry to confirm the good health status of the animals before inclusion.
Dogs were randomly allocated to receive either E-6087 or Placebo as oral tablets. E-6087 and Placebo tablets were similar (same appearance and packaging), therefore treatment administration, clinical examinations and blood sample analysis was always blind.
E-6087 was administered at the dose of 8 mg/kg on day D-1, approximately 24h before surgery scheduled time, before the first meal of the day. Placebo tablets were administered following the same posology.
Surgeries were performed in the morning, on day D0 by the Investigator (Surgeon). All surgeries were performed under the same anaesthesia protocol. Premedication was performed with medetomidine and morphine both at 0.1 ml/10 kg followed by anaesthesia maintained with Tiletamine/Zolazepam (Zoletil®). Local anaesthesia was not permitted. At the end of surgery, antibiotic therapy was administered to all dogs following the post-operative protocol stablished: amoxicillin (trihydrate) at 15 mg of amoxicillin/kg bw in a single dose.
Clinical assessments of postoperative pain and inflammation were done by the Investigator (Examining Veterinarian) using the SFGCMPS (13). Visual Analog Scales (VAS) were also used to assess pain at rest and under palpation as well as the level of inflammation.
On D0 at approximately 2 hours before surgery the Examining Veterinarian performed a physical examination and the clinical assessment of pain and inflammation to determine the basal scores. After surgery pain and inflammation were assessed at six examination time points: t1.5h, t3h, t5h (±30 minutes), t8h (±1hour), t24h and t168 (D7), when t0h corresponded to the end of surgery (extubation).
Clinical assessment of pain and inflammation included assessments of vocalization, attention to wound area, mobility, reaction to pressure at the wound area, general behaviour as well as activity and posture as per SFGCMPS. In addition, pain at rest and after palpation as well as the level of inflammation were assessed at the same time points by VAS ranging from 0 (no pain) to 100 (severe pain manifested by vocalization, aggression, and refusal to allow examination) and from 0 (no inflammation) to 100 (major inflammation as local heat, redness or paresis of the affected area).
Statistical Analysis was performed by use of commercially available software (SigmaPlot for Windows version 13.0). The area under the curve (AUC) was calculated for observable pain during the initial 8 and 24 hours, and it was considered as the primary efficacy variable. All analyses applied a two-sided significance level α = 0.05 and a power β = 80%. Demographic and baseline data were compared using the Mann-Whitney U test. Gender was compared with the Fisher exact probability test in contingency tables. Efficacy variables were analysed by repeated measures ANOVA.

[3] = system: dogs undergoing experimental orthopaedic surgery; assay: Control of postoperative pain and inflammation after experimental orthopaedic (knee) surgery, Maquet Modified Procedure; assay type: in vivo, Beagle dogs
Protocol: The study was performed with 6 clinically healthy Beagle dogs with similar age and weight that were experimentally subjected to knee surgery (repair of cranial cruciate ligament rupture). […] All surgeries were conducted under the same preoperative, intraoperative and postoperative protocols and performed by the same surgeon. A highly standardized surgical technique, Maquet Modified Procedure (MMP) (12) was implemented.
For each dog the study lasted 17 days, including a 7-day acclimatization period. On day D-1 (approximately 24h before the intervention) the five dogs in the TG received a single oral dose (8 mg/kg) of the TP, the one dog in the CG received a single subcutaneous dose (0.1 mg/kg) of the RP. […] On day D0 all dogs underwent knee surgery in the right knee. From day D1 up to day D10 dogs were closely examined and signs of pain and discomfort were blindly evaluated and rated using the Short Form of the Glasgow Composite Pain Scale (SFGCPS) ranging from 0 to 24 (13 and http://www.newmetrica.com/cmps/). On day D-1 dogs were also examined to rule out signs of pain or discomfort.

[4] = 1.5h after surgery, 8 mg/kg oral on D-1
[5] = 3h after surgery, 8 mg/kg oral on D-1
[6] = 5h after surgery, 8 mg/kg oral on D-1
[7] = 8h after surgery, 8 mg/kg oral on D-1
[8] = 24h after surgery, 8 mg/kg oral on D-1

## NS(=O)(=O)c1ccc(N2N=C(C(F)(F)F)CC2c2ccc(F)cc2F)cc1 (centres unmarked) [E-6087, enflicoxib]
[1]; at 3h, p= 0.025
  level of inflammation (VAS 0-100) compared with meloxicam: lower values
[1]; initial 24 hours, TG: E-6087 8 mg/kg oral on D-1, CG: meloxicam 0.2 mg/kg s.c. or i.v. on D0, then 0.1 mg/kg oral daily D1 to D7, p=0.7962
  SFGCMPS (AUC), average value: 95.50±57.70
[1]; no statistically significant differences at any time point
  SFGCMPS at each time point compared with CG: most values were lower
[2]; 8 mg/kg oral on D-1, not statistically significant (p=0.266)
  values of AUC for the first 24 hours after surgery compared with Placebo: almost half
[2]; 8 mg/kg oral on D-1, p=0,033
  AUC for the first 8 hours compared with Placebo: statistically significant lower values
[2]; [4]
  Attention to wound (SFGCMPS average value): 0
  Demeanour (SFGCMPS average value): 0.83
  Mobility (SFGCMPS average value): 0.33
  Posture/Activity (SFGCMPS average value): 0.17
  Pressure on wound (SFGCMPS average value): 0.33
  Total SFGCMPS (average value): 1.92
  Vocalization (SFGCMPS average value): 0.25
[2]; [5]
  Attention to wound (SFGCMPS average value): 0.08
  Demeanour (SFGCMPS average value): 0.50
  Mobility (SFGCMPS average value): 0
  Posture/Activity (SFGCMPS average value): 0.08
  Pressure on wound (SFGCMPS average value): 0.42
  Total SFGCMPS (average value): 1.33
  Vocalization (SFGCMPS average value): 0.25
[2]; 3 hours after surgery, p=0.021
  level of inflammation (VAS 0-100) compared with Placebo: Placebo was greater than for the group treated with E-6087
[2]; [6]
  Attention to wound (SFGCMPS average value): 0.08
  Demeanour (SFGCMPS average value): 0.17
  Mobility (SFGCMPS average value): 0
  Posture/Activity (SFGCMPS average value): 0
  Pressure on wound (SFGCMPS average value): 0.50
  Total SFGCMPS (average value): 0.75
  Vocalization (SFGCMPS average value): 0
[2]; [7]
  Attention to wound (SFGCMPS average value): 0
  Demeanour (SFGCMPS average value): 0
  Mobility (SFGCMPS average value): 0
  Posture/Activity (SFGCMPS average value): 0
  Pressure on wound (SFGCMPS average value): 0.67
  Total SFGCMPS (average value): 0.50
  Vocalization (SFGCMPS average value): 0
[2]; [8]
  Attention to wound (SFGCMPS average value): 0
  Demeanour (SFGCMPS average value): 0
  Mobility (SFGCMPS average value): 0
  Posture/Activity (SFGCMPS average value): 0
  Pressure on wound (SFGCMPS average value): 0.50
  Total SFGCMPS (average value): 0.50
  Vocalization (SFGCMPS average value): 0
[2]; first 24 hours after surgery, 8 mg/kg oral on D-1, primary efficacy variable
  AUC0→24h (SFGCMPS, observable pain): 16,0±15
[2]; significant only at 1.5, 3 and 5 hours (p <0,001, 0.007 and 0.042)
  Total scores for SFGCMPS at each time point compared with Placebo: always lower
[2]; single dose of 8 mg/kg
  alleviating pain and inflammation after soft tissue surgery: effective
[3]; 10 days follow up period
  need of rescue analgesia: None of the animals needed rescue analgesia
[3]; single oral dose 8 mg/kg on D-1
  potential adverse effects related to product administration: No potential adverse effects related to product administration were recorded
[3]; single oral dose 8 mg/kg on D-1, SFGCPS 0-24, D1 to D10
  analgesic agent in the postoperative period after orthopaedic surgery: effective
